Legend:
actin = molecular target: T1, actin (Rattus norvegicus, UniProt P68035); experiment: Gel shift assay, reducing/non-reducing western blot of cardiac myofibrils; format: biochemical; conditions: for actin higher molecular weight forms: non-reducing, lost with 5 mM DTT
T1 construct: Rat myofibrillar preparations, as described in [7], were obtained from frozen ventricles (Pel Freez Biologicals); tissue Pel Freez Biologicals; host or cells: myofibrils from frozen rat ventricles
Method: FIG. 4. Validation and characterizations of HNO modifications. 1 μg of rat cardiac myofibrils treated with HNO donors or control compounds were separated under reducing or nonreducing conditions and western blots probed for candidate proteins tropomyosin, actin, myosin heavy chain, myosin light chain 1 (n=4). […] Silver stained gel analysis indicated a protein band with […] gel mobility that was lost with DTT.
FIG. 5. Evaluation of the interaction between actin and tropomyosin with NCA treatment. Purified rabbit skeletal tropomyosin (0.03 μg) and isolated rat cardiac myofibrils (1 μg) were treated with NCA or AS and evaluated by 1D non-reducing western blot probing for tropomyosin (A) and actin (B) (n=3). […] (C) Fluorescent DIGE analysis of samples from A and B independent labeled indicates NCA specific band (green) above purified TM (blue) and below AS treated myofibrils (red) (n=3). (D) MS analysis of the same gel region identified both tropomyosin and actin in non-reduced lane but not with DTT treatment (n=2).
Gel shift assay. 10 μg of rat myofibrils/treatment were diluted to 0.5 μg/μl in HEN including 0.1% (w/v) SDS and exposed to a treatment for 20 min at 37° C. Samples were diluted to 0.1 ug/ul in 1×LSD sample buffer, treated with 0, 5 or 100 mM DTT and separated by SDS PAGE. Proteins were silver stained or transferred to nitrocellulose and immunoblotted with primary antibodies for tropomyosin sarcomeric (CH1, Sigma-Aldrich Co., St. Louis, Mo., USA), actin (AC-40, Sigma-Aldrich Co., St. Louis, Mo., USA), myosin light chain 1 (MLM527, Abcam, Cambridge, Mass., USA) or myosin heavy chain (3-48, Abcam, Cambridge, Mass., USA). For some silver stained gel bands of interest in-gel digestion was done following the protocol outlined in Shevchenko et al.. Gel slices of interest were excised from the gels cut into 1 mm^3 pieces. Silver stained gel pieces were destained in 1:1(v/v) 30 mM Potassium ferricyanide and 100 mM Sodium thiosulfate and wash three times with ddH2O. Gel pieces were dehydrated in 100% acetonitrile and reswelled in 10 mM DTT and incubated at 55° C. for 1 hour. After the DTT solution was removed, a solution of 55 mM iodoacetimide was added and gel slices were incubated at room temperature protected from light. Gel slices were then washed 3 times with 50% (v/v) ACN, 25 mM (NH4)HCO3 and then fully dehydrated in 100% ACN and dried in a speed vac. Gel pieces were reswelled in a 12.5 ng/μL trypsin (Promega, Madison Wis. USA) solution containing 25 mM (NH4)HCO3 and incubated at 37° C. for >16 hours. Digested peptides were extracted by addition of 5% (v/v) formic acid and incubation for 15 min followed by addition of an equal volume of 100% ACN and 15 min incubation, this step was repeated and the extracts were combined. […]

MLC1 = molecular target: T2, MLC1 (Rattus norvegicus, UniProt P02600); experiment: 2D gel shift western blot of skeletal myofibrils; format: biochemical; conditions: skeletal samples
T2 construct: using 10 μg of skeletal or cardiac myofibrils; from tissue; host or cells: skeletal muscle myofibrils
Description: FIG. 6. MLC1 Cys81 necessary for increase in Fmax induced by treatment with HNO donors. (a) Sequence alignment comparing isoforms of rat cardiac (SEQ ID NO:16) and skeletal MLC1 (SEQ ID NO:17) in the region surrounding cardiac Cys81. (b) Steady-state force-[Ca^2+]i relations in control (o) versus NCA-treated (•) from cardiac or skeletal trabeculae indicating loss of increase in maximum force with loss of Cys81 in skeletal isoform with NCA (n=5, each group). (c) 2D Gel shift assay (non-reduced, NR and reduced, DTT) using 10 μg of skeletal or cardiac myofibrils indicating loss of higher molecular weight forms of MLC1 in skeletal HNO treated preparations while maintaining higher molecular weight form of TM (n=3).
Gel shift assay. 10 μg of rat myofibrils/treatment were diluted to 0.5 μg/μl in HEN including 0.1% (w/v) SDS and exposed to a treatment for 20 min at 37° C. Samples were diluted to 0.1 ug/ul in 1×LSD sample buffer, treated with 0, 5 or 100 mM DTT and separated by SDS PAGE. Proteins were silver stained or transferred to nitrocellulose and immunoblotted with primary antibodies for tropomyosin sarcomeric (CH1, Sigma-Aldrich Co., St. Louis, Mo., USA), actin (AC-40, Sigma-Aldrich Co., St. Louis, Mo., USA), myosin light chain 1 (MLM527, Abcam, Cambridge, Mass., USA) or myosin heavy chain (3-48, Abcam, Cambridge, Mass., USA). […]

T2 sequence (P02600 whole entry): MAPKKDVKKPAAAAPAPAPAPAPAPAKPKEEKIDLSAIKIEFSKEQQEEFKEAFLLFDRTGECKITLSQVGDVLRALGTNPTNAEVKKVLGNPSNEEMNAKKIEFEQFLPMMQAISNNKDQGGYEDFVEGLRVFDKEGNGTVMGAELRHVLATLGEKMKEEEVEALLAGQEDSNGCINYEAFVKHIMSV

Compound | actin higher molecular weight forms (actin) | antibody epitope binding of monomeric actin (actin; western blot) | higher molecular weight forms of MLC1 (MLC1)
CC(=O)OC1(N=O)CCCCC1 [NCA, 1-nitrosocyclohexylacetate] | approximately 80 kDa | loss of antibody epitope binding | absence of higher molecular weight forms of MLC1
[Na+].[Na+].[O-][N+]([O-])=NO [AS, Angeli's Salt] | approximately 80 kDa |  | 

Reference: patent publication US20120231482A1, “METHOD, KIT OR DIAGNOSTIC FOR THE DETECTION OF REAGENTS WHICH INDUCE ALTERED CONTRACTILITY” (THE JOHNS HOPKINS UNIVERSITY, priority 2009, published 2012)
